Assay results: PubChem BioAssay (NCI)
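96-well plates; 48 h exposure; 5 concentrations. Endpoints by linear interpolation between flanking doses. Not reached: highest tested concentration assigned. TGI: concentration producing complete growth inhibition.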

How the values were obtained:
Assay in all cases: growth of human tumour cells (NCI), 48 h
[1] = system: SF-268 CNS
[2] = system: BT-549 breast
[3] = system: IGROV1 ovarian
[4] = system: OVCAR-5 ovarian
[5] = system: HT29 colon
[6] = system: HL-60(TB) leukemia
[7] = system: PC-3 prostate
[8] = system: KM12 colon
[9] = system: NCI-H23 lung
[10] = system: ACHN renal
[11] = system: SR leukemia
[12] = system: HCT-116 colon
[13] = system: SK-MEL-5 melanoma
[14] = system: HOP-62 NSCLC
[15] = system: A549 NSCLC
[16] = system: 786-0 renal
[17] = system: OVCAR-8 ovarian
[18] = system: T-47D breast
[19] = system: SF-295 CNS

Structure (SMILES) | TGI [1] [µM] | TGI [2] [µM] | TGI [3] [µM] | TGI [4] [µM] | TGI [5] [µM] | TGI [6] [µM] | TGI [7] [µM] | TGI [8] [µM] | TGI [9] [µM] | TGI [10] [µM] | TGI [11] [µM] | TGI [12] [µM] | TGI [13] [µM] | TGI [14] [µM] | TGI [15] [µM] | TGI [16] [µM] | TGI [17] [µM] | TGI [18] [µM] | TGI [19] [µM]
Cc1ccnc2[nH]c(-c3ccc(F)cc3)cc(=O)c12 | > 100 | > 100 | > 100 | > 100 | > 100 | 38.5 | > 100 | > 100 | > 100 | > 100 | 25.9 | > 100 | > 100 | > 100 | > 100 | > 100 | > 100 | > 100 | > 100
NC(=O)SCCC(N)C(=O)O (centres undefined) | > 100 | > 100 | > 100 | > 100 | > 100 | > 100 | > 100 | > 100 | > 100 | > 100 | > 100 | > 100 | > 100 | > 100 | > 100 | > 100 | > 100 | > 100 | > 100
O=C1NC(N2CCCCC2)=N/C1=C\c1ccc(Cl)cc1 | > 100 | > 100 | > 100 | > 100 | 35.7 | > 100 | > 100 | > 100 | > 100 | > 100 | > 100 | 92.7 | > 100 | > 100 | > 100 | 79.9 | 64.8 | > 100 | > 100
Clc1ccc(OCc2nnc3sc(-c4ccc(-c5ccc(Cl)cc5Cl)o4)nn23)cc1 | > 100 | > 100 | > 100 | > 100 | > 100 | > 100 | > 100 | > 100 | > 100 | > 100 | > 100 | > 100 | > 100 | > 100 | > 100 | > 100 | > 100 | > 100 | > 100
CSc1nc2c(c(N3CCOCC3)n1)C(O)n1c(nc3ccccc31)S2 (centres undefined) | > 100 | > 100 | > 100 | > 100 | > 100 | > 100 | > 100 | > 100 | > 100 | > 100 | > 100 | > 100 | 8.41 | > 100 | > 100 | > 100 | > 100 | > 100 | > 100
O=C(CCc1ccccc1)n1cccc1CO | > 100 | > 100 | > 100 | > 100 | > 100 | > 100 | > 100 | > 100 | > 100 | > 100 | > 100 | > 100 | > 100 | > 100 | > 100 | > 100 | > 100 | > 100 | > 100
COc1cccc(Nc2nc(N)nc(N)c2N)c1 | > 100 | > 100 | > 100 | > 100 | > 100 | > 100 | > 100 | > 100 | > 100 | > 100 | 49.6 | 53.8 | 88.2 | > 100 | > 100 | > 100 | > 100 | > 100 | 60.7
O=C1OC(C2(O)OC(=O)c3ccccc32)c2ccccc21 (centres undefined) | > 100 | > 100 | > 100 | > 100 | > 100 | > 100 | > 100 | > 100 | > 100 | > 100 | > 100 | > 100 | > 100 | > 100 | > 100 | > 100 | > 100 | > 100 | > 100
CSC1=NNC(SC)=NN1 | 0.351 | 0.348 | 0.302 | 0.324 | 0.316 | 0.407 | 0.303 | 0.376 | 0.7 | 0.304 | 0.0483 | 0.303 | 0.354 | 0.398 | 0.406 | 0.328 | 0.812 | 0.33 | 0.34
CCN(CC)c1ccc2nc3ccc(N=Nc4c(O)ccc5ccccc45)cc3[n+](-c3ccccc3)c2c1 | > 100 | > 100 | > 100 | > 100 | > 100 | > 100 | > 100 | > 100 | > 100 | > 100 | > 100 | > 100 | > 100 | > 100 | > 100 | > 100 | > 100 | > 100 | > 100
CCN(CC)Cc1ccc(C(=S)Nc2ccc(C)cc2)s1 | 4.42 | 40.2 | 26.2 | 29.5 | 14.4 | 27 | 31.3 | 31 | 26.5 | 39 | 37.6 | 28.7 | 26.5 | 34.5 | 36.1 | 29.1 | 35.3 | 37.4 | 28.3
